Results taken from US10357490B2, “Combinations for the treatment of neuroblastoma” (IGNYTA, INC., priority 2014, dated 2019).

How the values were obtained:
[1] = tested on: TrkB-expressing neuroblastoma cells (SH-SY5Y cells stably transfected with TrkB); experiment: Sulphorhodamine B (SRB) assay, survival and growth of TrkB-expressing neuroblastoma cells; format: cell-based; details: single agent; 1-100 nM; 100 ng per mL BDNF; 24, 48, 72 hours
[2] = tested on: SY5Y-TrkB cells; experiment: SY5Y-TrkB xenograft study: tumor growth and event-free survival; format: in vivo, athymic nu/nu mice; details: oral
Method: N-[5-(3,5-difluorobenzyl)-1H-indazol-3-yl]-4-(4-methyl-piperazin-1-yl)-2-(tetrahydro-2H-pyran-4-ylamino) benzamide_was dissolved in DMSO to obtain stocks for in vitro studies. For in vivo xenograft experiments, N-[5-(3,5-difluorobenzyl)-1H-indazol-3-yl]-4-(4-methyl-piperazin-1-yl)-2-(tetrahydro-2H-pyran-4-ylamino) benzamide was reconstituted in 0.5% methyl cellulose (Sigma-Aldrich, viscosity 400 cP, 2% in H2O) containing 1% Tween 80 at a final dosing volume of 10 mL per kg. Prior to dosing, the formulation was stirred at room temperature for 30 min, and then sonicated in a water bath sonicator for 20 min. The formulation was made fresh every week. For the in vivo study, the animals were dosed with the formulation of N-[5-(3,5-difluorobenzyl)-1H-indazol-3-yl]-4-(4-methyl-piperazin-1-yl)-2-(tetrahydro-2H-pyran-4-ylamino) benzamide twice a day (BID) for 7 days per week at a dose of 60 mg per kg.
Xenograft studies were performed using SH-SY5Y cells stably transfected with TrkB. Cells were grown in RPMI-1640 medium containing 10% fetal bovine serum and maintained in 150 cm^3 Costar culture flasks in a humidified atmosphere of 95% air and 5% CO2. Cells were harvested using 0.2% tetra sodium EDTA in phosphate buffered saline (PBS).
Six-week-old athymic nu/nu mice were obtained from Jackson Laboratories. Mice were maintained at five per cage under humidity- and temperature-controlled conditions in a light/dark cycle that was set at 12-hour intervals.
For in vivo xenograft studies, six-week-old athymic nu/nu mice were injected subcutaneously in the flank with 1×10^7 SY5Y-TrkB cells in 0.1 ml of Matrigel (BD Bioscience, Palo Alto, Calif.). Tumors were measured 2 times per week in 3 dimensions, and the volume calculated as follows: [(0.523×L×W×W)/1000]. Body weights of the mice were obtained every week and the dose of the tested compounds were adjusted accordingly. […]

In the case of CN1CCN(c2ccc(C(=O)Nc3n[nH]c4ccc(Cc5cc(F)cc(F)c5)cc34)c(NC3CCOCC3)c2)CC1 [N-[5-(3,5-difluorobenzyl)-1H-indazol-3-yl]-4-(4-methyl-piperazin-1-yl)-2-(tetrahydro-2H-pyran-4-ylamino) benzamide], the “inhibition of growth of TrkB-expressing NB cells in vitro” value [1] is reported as “significantly inhibited growth”, the “Estimated slope from linear mixed effects model (increase of log tumor volume)” value ([2]; Control vs Group 2 analysis (FIG. 3), Group 2: alone, 60 mg per kg, twice per day, 7 times per week) is reported as 0.0973 per day in the log of tumor volume and the “Estimated slope of trace in FIG. 1, linear mixed effects model” value ([2]; Group 2: alone, 60 mg per kg, twice per day, 7 times per week) is reported as 0.0696 per day in the log of tumor volume. The “tumor growth inhibition compared to control animals” value ([2]; single agent therapy, 60 mg per kg BID) was “significant tumor growth inhibition”.
